{"source": "patent US20110275591A1", "about": "“COCKTAIL FOR MODULATION OF ALZHEIMER'S DISEASE” (Concourse Health Sciences LLC, priority 2004, published 2011)", "origin": "cited, not measured here", "key": {"[1]": {"system": "Alzheimer transgenic mice", "conditions": "dietary curcumin"}, "[2]": {"system": "patients with probable AD", "conditions": "after 3 and 6 months of treatment; significant differences only for a subset of cognitive tasks"}, "SAMP8 mouse": {"system": "SAMP8 mouse", "conditions": "for cognition in T-maze footshock avoidance paradigm and lever press appetitive task: chronic administration"}, "[3]": {"system": "children with autistic spectrum disorders", "conditions": "8-week study; all p<0.05"}, "[4]": {"system": "primary neurons of rat cerebral cortex", "conditions": "MTT and propidium iodide assays"}, "[5]": {"system": "cultured hippocampal neurons"}, "[6]": {"conditions": "co-treatment during 48-hour Aβ exposure, vs controls with no EGCG"}}, "data": [{"compound": "COc1cc(/C=C/C(=O)CC(=O)/C=C/c2ccc(O)c(OC)c2)ccc1O", "note": "[curcumin, Curcumin]", "values": [{"measurement": "lipid peroxidation products (indicators of oxidative stress)", "setting": "diabetic rats; curcumin fed rats", "result": "significant reduction"}, {"measurement": "accumulation of advanced glycation endproducts", "setting": "diabetic rats; dietary curcumin 200 mg/kg body weight, vs control diabetic rats without curcumin", "result": "prevents the accumulation"}, {"measurement": "levels of interleukin-1 beta", "setting": "[1]", "result": "decreased levels"}, {"measurement": "levels of oxidized proteins", "setting": "[1]", "result": "decreased levels"}, {"measurement": "microgliosis", "setting": "[1]", "result": "suppression"}]}, {"compound": "CC(=O)N[C@@H](CS)C(=O)O", "note": "[NAC, N-Acetylcysteine, reference compound]", "values": [{"measurement": "efficacy outcome measures (cognitive tasks)", "setting": "[2]", "result": "beneficial results on nearly every outcome measure"}, {"measurement": "cognition in T-maze footshock avoidance paradigm and lever press appetitive task", "setting": "SAMP8 mouse; 12-month-old SAMP8 mice", "result": "improved cognition"}, {"measurement": "blood-brain barrier passage", "setting": "SAMP8 mouse; SAMP8 mice", "result": "crossed the blood-brain barrier and accumulated in the brain"}]}, {"compound": "NCCC(=O)N[C@@H](Cc1cnc[nH]1)C(=O)O", "note": "[L-carnosine, b-alanyl-L-histidine]", "values": [{"measurement": "Gilliam Autism Rating Scale and Receptive One-Word Picture Vocabulary test", "setting": "[3]", "result": "statistically significant improvements"}]}, {"compound": "O=C(O)CCCCC1CCSS1", "note": "(stereo not drawn) [ALA, Alpha lipoic acid]", "values": [{"measurement": "protection against cytotoxicity induced by Aβ peptide", "setting": "[4]; Aβ peptide 30 microM", "result": "protected cortical neurons against cytotoxicity"}, {"measurement": "protection against cytotoxicity induced by H2O2", "setting": "[4]; H2O2 100 microM", "result": "protected cortical neurons against cytotoxicity"}, {"measurement": "indexes of oxidative stress (protein carbonyls, TBARS, W/S ratio of MAL-6)", "setting": "SAMP8 mouse; 12-month-old SAMP8 mice", "result": "reversed all three indexes of oxidative stress"}, {"measurement": "cognition in T-maze footshock avoidance paradigm and lever press appetitive task", "setting": "SAMP8 mouse; 12-month-old SAMP8 mice", "result": "improved cognition"}]}, {"compound": "Epigallocatechin-3-gallate [EGCG]", "values": [{"measurement": "cell survival", "setting": "[5]; Aβ-exposed neurons, vs controls", "result": "increased survival"}, {"measurement": "levels of caspase C", "setting": "[5]; [6]", "result": "decreased"}, {"measurement": "levels of malondiadehyde", "setting": "[5]; [6]", "result": "decreased"}]}]}
